Where two headings read alike, the source gives them in different places.
Target: HCV NS5B polymerase (Hepatitis C virus genotype 1b, UniProt Q9WMX2)
Experiment: HCV NS5B polymerase inhibition assay (FlashPlate, [α-33P]GTP incorporation)
Format: biochemical
Experimental: Compounds were tested for HCV NS5B polymerase inhibition. Assays were performed in a 96-well streptavidin-coated FlashPlate using 20 nM enzyme, 1.4 μCi of [(α-^33P]GTP, 0.63 μM GTP, and 250 nM 5′biotinylated oligo (rG13)/poly rC in 20 mM Tris-HCl, pH 7.5, 5 mM MgCl2, 5 mM dithiothreitol, 0.1 g/L bovine serum albumin, and 100 U/ml RNAse inhibitor. The reaction was stopped by aspiration after 75 min at 28° C. and the plate was washed several times. After washing and drying the plate, incorporated radioactivity was counted using a Microbeta scintillation counter. IC50 values were calculated relative to the uninhibited control and inhibition data were fitted to a 4-parameter IC50 equation. For very potent inhibitors, the data were fitted to a tight binding quadratic equation to obtain IC50 values.

[1] = 20 nM enzyme, 75 min at 28° C., read-out: NS5B IC50
[2] = read-out: NS5B polymerase inhibition IC50

Sequence of HCV NS5B polymerase (Q9WMX2 2420-3010): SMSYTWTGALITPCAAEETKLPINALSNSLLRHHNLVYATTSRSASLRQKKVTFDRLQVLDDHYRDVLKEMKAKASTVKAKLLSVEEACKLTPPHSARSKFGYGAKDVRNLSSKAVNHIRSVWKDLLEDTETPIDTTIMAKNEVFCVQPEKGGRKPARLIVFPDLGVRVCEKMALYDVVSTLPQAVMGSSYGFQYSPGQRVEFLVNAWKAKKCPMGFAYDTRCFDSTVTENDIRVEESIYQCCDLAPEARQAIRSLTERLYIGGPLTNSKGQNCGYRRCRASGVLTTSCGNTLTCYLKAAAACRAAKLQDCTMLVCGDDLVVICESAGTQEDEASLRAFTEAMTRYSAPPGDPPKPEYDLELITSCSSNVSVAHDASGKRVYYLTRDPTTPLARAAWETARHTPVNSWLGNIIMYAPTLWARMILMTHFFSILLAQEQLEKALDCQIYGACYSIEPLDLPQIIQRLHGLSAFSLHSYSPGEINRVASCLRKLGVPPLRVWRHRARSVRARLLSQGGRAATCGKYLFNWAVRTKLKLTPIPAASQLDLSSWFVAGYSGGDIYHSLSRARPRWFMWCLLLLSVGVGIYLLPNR

Compound | IC50 [1] [µM] | IC50 [2] [µM]
CS1(=O)=NC(C2=C(O)[C@@H]3CCC[C@@H]3N(Cc3ccc(F)cc3)C2=O)=Nc2ccccc21 (stereo in doubt) [Compound 68, 1-(4-fluoro-benzyl)-4-hydroxy-3-(1-methyl-1-oxo-1λ^6-benzo[1,2,4]thiadiazin-3-yl)-1,4a,5,6,7,7a-hexahydro-[1]pyrindin-2-one] | 1 to 100 | < 100
CC(C)(C)CCn1nc(-c2cccs2)c(O)c(C2=Nc3ccc(NS(C)(=O)=O)cc3[S@@](C)(=O)=N2)c1=O [Compound 23] | < 1 | < 1
CC(C)(C)CCn1nc(-c2cccs2)c(O)c(C2=Nc3ccc(NS(C)(=O)=O)cc3[S@](C)(=O)=N2)c1=O [Compound 24] | 1 to 100 | < 100
CC(C)(C)CCn1nc(N2CCCC2)c(O)c(C2=Nc3ccc(NS(C)(=O)=O)cc3S(C)(=O)=N2)c1=O (stereo not drawn) [Compound 28, N-{3-[2-(3,3-dimethyl-butyl)-5-hydroxy-3-oxo-6-pyrrolidin-1-yl-2,3-dihydro-pyridazin-4-yl]-1-methyl-1-oxo-1λ^6-benzo[1,2,4]thiadiazin-7-yl}-methanesulfonamide] | < 1 | < 1
CC(C)(C)CC[C@@]1(C)C(=O)C(C2=Nc3ccc(NS(C)(=O)=O)cc3[S@@](C)(=O)=N2)=C(O)c2ccccc21 [Compound 37] | < 1 | < 1
CC(C)(C)CC[C@@]1(C)C(=O)C(C2=Nc3ccc(NS(C)(=O)=O)cc3[S@](C)(=O)=N2)=C(O)c2ccccc21 [Compound 38] | < 1 | < 1
CS(=O)(=O)Nc1ccc2c(c1)S(C)(=O)=NC(C1=C(O)[C@@H]3[C@H]4CC[C@H](C4)[C@@H]3N(Cc3ccc(F)cc3)C1=O)=N2 (stereo partly drawn) [Compound 54, N-{3-[3-(4-fluoro-benzyl)-6-hydroxy-4-oxo-3-aza-tricyclo[6.2.1.0^2,7]undec-5-en-5-yl]-1-methyl-1-oxo-1λ^6-benzo[1,2,4]thiadiazin-7-yl}-methanesulfonamide] | < 1 | < 1

More lines, now with the values ahead:

IC50 [1] [µM] | IC50 [2] [µM] | Compound
< 1 | < 1 | CS(=O)(=O)Nc1ccc2c(c1)S(C)(=O)=NC(C1=C(O)[C@H]3[C@H]([C@@H]4CC[C@H]3O4)N(Cc3ccc(F)cc3)C1=O)=N2 (mixture of isomers) [Compound 63, N-{3-[3-(4-fluoro-benzyl)-6-hydroxy-4-oxo-11-oxa-3-aza-tricyclo[6.2.1.0^2,7]undec-5-en-5-yl]-1-methyl-1-oxo-1λ^6-benzo[1,2,4]thiadiazin-7-yl}-methanesulfonamide]
< 1 | < 1 | CC[C@H]1CC(O)=C(C2=Nc3ccc(NS(C)(=O)=O)cc3S(C)(=O)=N2)C(=O)N1Cc1ccc(F)cc1 (mixture of isomers) [Compound 75, N-{3-[6-(S)-Ethyl-1-(4-fluoro-benzyl)-4-hydroxy-2-oxo-1,2,5,6-tetrahydro-pyridin-3-yl]-1-methyl-1-oxo-1λ^6-benzo[1,2,4]thiadiazin-7-yl}-methanesulfonamide]
< 1 | < 1 | CC(C)(C)CCn1nc(-c2cccs2)c(O)c(C2=Nc3ccc(NS(C)(=O)=O)cc3S(C)(=O)=N2)c1=O (racemic) [Compound 22, N-{3-[2-(3,3-dimethyl-butyl)-5-hydroxy-3-oxo-6-thiophen-2-yl-2,3-dihydro-pyridazin-4-yl]-1-methyl-1-oxo-1l6-benzo[1,2,4]thiadiazin-7-yl}-methanesulfonamide]
< 1 | < 1 | CC(C)(C)CC[C@@]1(C)C(=O)C(C2=Nc3ccc(NS(C)(=O)=O)cc3S(C)(=O)=N2)=C(O)c2ccccc21 (mixture of isomers) [Compound 36, N-{3-[4-(3,3-dimethyl-butyl)-1-hydroxy-4-methyl-3-oxo-3,4-dihydro-naphthalen-2-yl]-1-methyl-1-oxo-1λ^6-benzo[1,2,4]thiadiazin-7-yl}-methanesulfonamide]
< 1 | < 1 | CC(C)(C)[C@H]1C(O)=C(C2=Nc3ccc(NS(C)(=O)=O)cc3S(C)(=O)=N2)C(=O)N1Cc1ccc(F)c(Cl)c1 (stereo in doubt) [Compound 32, N-{3-[5-tert-butyl-1-(3-chloro-4-fluoro-benzyl)-4-hydroxy-2-oxo-2,5-dihydro-1H-pyrrol-3-yl]-1-methyl-1-oxo-1λ^6-benzo[1,2,4]thiadiazin-7-yl}-methanesulfonamide]
